Test results taken from patent US20110178072A1, “STEREOSPECIFICITY OF METHYLSULFINYL REDUCTION” (priority 2008, published 2011).

Columns and labels:
SK-Hep1 cells = assay: Growth and morphology of SK-Hep1 cells in Met-free DMEM supplemented with Met or Met sulfoxides (MTS proliferation assay, microscopy); assay type: cell-based, human; settings: for Growth of SK-Hep1 cells: Met-free DMEM supplemented with 0.1 mM of the compound; for Morphology of SK-Hep1 cells: after 96 hours on medium with 0.1 mM of the compound
Experimental: Cell culture—SK-Hep1 (ATCC: HTB-52™) and fRMsr-transfected SK-Hep1 cells were cultured in DMEM or Met-free DMEM (GIBCO) media, supplemented with 0.1 mM Met, 0.1 mM Met-RO, 0.1 mM Met-SO, or 0.1 mM Met-RSO. […] Thus, 0.1 mM Met sulfoxides were used in the experiments described below. Cell culture experiments, with the exception of a proliferation assay, were carried out in 6-well plates, and cells were maintained at 37° C. in a 5% CO2 atmosphere. Proliferation Assay—Cell growth was quantified using colorimetric MTS assay (Promega). Cells in regular DMEM medium were plated in 96-well plates at 5×10^3 cells/well, washed with PBS, and specialized DMEM media were added that contained Met, Met-SO, Met-RO, or Met-RSO 24 hours after plating. To assay for cell proliferation, a tetrazolium compound [3-(4,5-dimethylthiazol-2-yl)-5-(3-carboxymethoxyphenyl)-2-(4-sulfophenyl)-2H-tetrazolium, inner salt; MTS] and an electron coupling reagent (phenazine methosulfate; PMS) were mixed according to the manufacturer's protocol and then 20 μL of the mixture were added to 100 μL of phenol red-excluded media that further replaced cell culture media. After 90 minutes of incubation at 37° C. in the atmosphere of 5% CO2, cell proliferation was measured at indicated time periods from 0 to 96 hours at 450 nm in a plate reader. Direct counting of viable cells using 0.2% trypan blue was done in 6-well plates. Microscopy—A Nikon TE-300 Widefield Microscope was used to prepare images of SK-Hep1 cells grown on different Met and Met sulfoxide media. Microscopy analyses were carried out in the University of Nebraska Microscopy Core Facility.

[1] = test system: yeast fRMsr-transfected SK-Hep1 cells; assay: Growth and morphology of yeast fRMsr-expressing SK-Hep1 cells on Met sulfoxide media; assay type: cell-based, human; settings: 0.1 mM
Experimental: Proliferation Assay-Cell growth was quantified using colorimetric MTS assay (Promega). Cells in regular DMEM medium were plated in 96-well plates at 5×10^3 cells/well, washed with PBS, and specialized DMEM media were added that contained Met, Met-SO, Met-RO, or Met-RSO 24 hours after plating. To assay for cell proliferation, a tetrazolium compound [3-(4,5-dimethylthiazol-2-yl)-5-(3-carboxymethoxyphenyl)-2-(4-sulfophenyl)-2H-tetrazolium, inner salt; MTS] and an electron coupling reagent (phenazine methosulfate; PMS) were mixed according to the manufacturer's protocol and then 20 μL of the mixture were added to 100 μL of phenol red-excluded media that further replaced cell culture media. After 90 minutes of incubation at 37° C. in the atmosphere of 5% CO2, cell proliferation was measured at indicated time periods from 0 to 96 hours at 450 nm in a plate reader. Direct counting of viable cells using 0.2% trypan blue was done in 6-well plates. Transfection of […] into SK-Hep1 cells-[…]-tag sequence was cloned at the C-terminus of […] sequence was inserted into a mammalian expression vector, pCI-neo (Promega), and the resulting construct was verified by DNA sequencing. […] To establish a stable cell line, cells were selected in the presence of 800 μg/mL G418 sulfate (Promega), and further maintained in the presence of 400 μg/mL G418 sulfate. […]

CBS = assay: Western blot analysis of CBS in SK-Hep1 cells grown on Met and Met sulfoxide media; assay type: cell-based, human; settings: 0.1 mM
Experimental: Analysis of SK-Hep1 and fRMsr-transfected SK-Hep1 cells—SK-Hep1 and fRMsr-transfected SK-Hep1 cells were plated in 6-well plates at 7.5×10^4 cells/well in regular DMEM medium. The medium was changed to Met-free DMEM supplemented with either Met or individual Met sulfoxides at 24 hours after plating. Cells were then collected every 24 hours until 96 hours. Protein concentration was measured by the Bradford assay and the samples were probed by standard immunoblot assays with polyclonal MsrA (kindly provided by Bertrand Friguet), cystathionine beta synthase (CBS) (kindly provided by Ruma Banerjee), and activating transcription factor 3 (ATF3) (Santa Cruz Biotechnology) antibodies.

[2] = test system: yfRMsr transfected SK-Hep1; assay: Specific activity of yfRMsr transfected SK-Hep1 cells towards free Met sulfoxides; assay type: biochemical, human; settings: for Specific activity of fRMsr-transfected cells: fRMsr-transfected SK-Hep1 cells; for Specific activity for each Met-O: yfRMsr transfected SK-Hep1, ± standard deviations from 3 independent experiments
Experimental: Transfection of yeast fRMsr gene into SK-Hep1 cells—A 6 His-tag sequence was cloned at the C-terminus of yeast fRMsr, the sequence was inserted into a mammalian expression vector, pCI-neo (Promega), and the resulting construct was verified by DNA sequencing. […] To establish a stable cell line, cells were selected in the presence of 800 μg/mL G418 sulfate (Promega), and further maintained in the presence of 400 μg/mL G418 sulfate. Expression of recombinant fRMsr was verified by western blotting using anti-His-tag antibodies and Msr activities were assayed by an HPLC method using OPA derivatization.
Activity assays of fRMsr—Reaction mixture (40 μL) included 50 mM DTT, 1 mM substrate (Met-RO or Met-SO), and purified enzyme or cell lysate prepared by treatment with CelLytic™M cell lysis reagent (Sigma). 20 μL of the reaction mixture was mixed with 2 μL of TCA and subjected to OPA derivatization as described above and then injected onto the column to measure endogenous Met level in the samples. An additional 20 μL from the same original reaction mixture were incubated at 37° C. for 30 minutes and then subjected to OPA derivatization by the same procedure using TCA. After derivatization of the sample (2-5 μL) by adding OPA solution to 100 μL as a final volume, 50 μL of the mixture were subjected to an HPLC separation as described above.

selenoproteins = assay: 75Se metabolic labeling of SK-Hep1 cells grown on Met and Met sulfoxide media; assay type: cell-based, human; settings: 0.1 mM of each amino acid
Experimental: ^75 Se Metabolic labeling—SK-Hep1 cells were plated in 6-well plates at 7.5×10^4 cells/well in 1.5 mL of regular DMEM medium. After 24 hours, cells were washed with PBS and the medium was changed to modified DMEM media containing Met, Met-SO, Met-RO, or Met-RSO (0.1 mM of each amino acid). 0.01 mCi of freshly neutralized [^75Se]selenious acid (specific activity 1,000 Ci/mmol, University of Missouri Research Reactor) was added in each well at 48 hours after changing the medium and cells were incubated at 37° C. for 24 hours in 5% CO2 atmosphere, followed by harvesting the cells. Cell extracts (30 μg of total protein) were electrophoresed on 10% Bis-Tris gels and transferred onto PVDF membranes (Invitrogen). The ^75Se radioactivity pattern was visualized by using a PhosphorImager (GE Health Care).

Compound | Growth of SK-Hep1 cells (SK-Hep1 cells) | Morphology of SK-Hep1 cells (SK-Hep1 cells) | Growth of fRMsr-transfected cells [1] | Expression of CBS (CBS; SK-Hep1 cells) | Specific activity of fRMsr-transfected cells [2] | Specific activity for each Met-O [2] | Selenoprotein patterns (75Se labeling) (selenoproteins) | Expression of CBS (CBS; fRMsr-expressing SK-Hep1 cells)
C[S@+]([O-])CC[C@H](N)C(=O)O [Met-SO, methionine-S-sulfoxide] | could also proliferate | resembled those maintained in the presence of Met | essentially indistinguishable from that of cells grown in the presence of Met | CBS levels were decreased | ≈ 42.7 pmol/min/mg protein | 42.7 ± 5.9 pmol/min/mg | No difference was observed | 
C[S@@+]([O-])CC[C@H](N)C(=O)O [Met-RO, methionine-R-sulfoxide] | did not support growth | long and narrow | essentially indistinguishable from that of cells grown in the presence of Met | reduced expression | ≈ 46.4 pmol/min/mg protein | 46.4 ± 5.0 pmol/min/mg | No difference was observed | normal CBS levels
